From ChEMBL document CHEMBL3351675, “Novel benzenesulfonylureas containing thiophenylpyrazoline moiety as potential antidiabetic and anticancer agents” (Bioorg Med Chem Lett, 2014)
Calls of active or inactive are those of the source. The calls are words filed in the database; no cut-off is given here.

Assays:
[1] = Anticancer activity against human OVCAR8 cells assessed as cell growth level at 10 uM after 48 hrs by sulforhodamine B assay; type: functional, OVCAR-8
[2] = tested on: ACHN; assay: Anticancer activity against human ACHN cells assessed as cell growth level at 10 uM after 48 hrs by sulforhodamine B assay; type: functional
[3] = tested on: SN12C; assay: Anticancer activity against human SN12C cells assessed as cell growth level at 10 uM after 48 hrs by sulforhodamine B assay; type: functional
[4] = Anticancer activity against human UO31 cells assessed as cell growth level at 10 uM after 48 hrs by sulforhodamine B assay; type: functional, UO-31
[5] = tested on: MDA-MB-231; assay: Anticancer activity against human MDA-MB-231 cells assessed as cell growth level at 10 uM after 48 hrs by sulforhodamine B assay; type: functional
[6] = Anticancer activity against human BT549 cells assessed as cell growth level at 10 uM after 48 hrs by sulforhodamine B assay; type: functional, BT-549
[7] = tested on: T47D; assay: Anticancer activity against human T47D cells assessed as cell growth level at 10 uM after 48 hrs by sulforhodamine B assay; type: functional
[8] = Anticancer activity against human NCI60 cells assessed as cell growth level at 10 uM after 48 hrs by sulforhodamine B assay; type: functional
[9] = tested on: Rattus norvegicus; assay: Antidiabetic activity in Wistar rat model of streptozotocin-induced diabetes assessed as reduction in plasma glucose level at 30 mg/kg, po and dosage repeated for 15 days by GOD-POD method; type: functional, organism-based; parameters: dose 30 mg/kg
[10] = tested on: K562; assay: Anticancer activity against human K562 cells assessed as cell growth level at 10 uM after 48 hrs by sulforhodamine B assay; type: functional
[11] = tested on: SR; assay: Anticancer activity against human SR cells assessed as cell growth level at 10 uM after 48 hrs by sulforhodamine B assay; type: functional
[12] = tested on: NCI-H226; assay: Anticancer activity against human NCI-H226 cells assessed as cell growth level at 10 uM after 48 hrs by sulforhodamine B assay; type: functional
[13] = Anticancer activity against human HCT15 cells assessed as cell growth level at 10 uM after 48 hrs by sulforhodamine B assay; type: functional, HCT-15
[14] = tested on: SW-620; assay: Anticancer activity against human SW620 cells assessed as cell growth level at 10 uM after 48 hrs by sulforhodamine B assay; type: functional
[15] = tested on: SNB-75; assay: Anticancer activity against human SNB75 cells assessed as cell growth level at 10 uM after 48 hrs by sulforhodamine B assay; type: functional
[16] = tested on: U-251; assay: Anticancer activity against human U251 cells assessed as cell growth level at 10 uM after 48 hrs by sulforhodamine B assay; type: functional
[17] = Anticancer activity against human LOXIMVI cells assessed as cell growth level at 10 uM after 48 hrs by sulforhodamine B assay; type: functional, LOX IMVI
[18] = tested on: Rattus norvegicus; assay: Increase in body weight in Wistar rat model of streptozotocin-induced diabetes at 30 mg/kg, po measured over 15 days; type: ADME, organism-based; parameters: dose 30 mg/kg, route oral; conditions: in vivo, 360 h

| SMILES | Activity [1] [%] | Activity [2] [%] | Activity [3] [%] | Activity [4] [%] | Activity [5] [%] | Activity [6] [%] | Activity [7] [%] | Activity [8] [%] | inhibition [9] | Activity [10] [%] | Activity [11] [%] | Activity [12] [%] | Activity [13] [%] | Activity [14] [%] | Activity [15] [%] | Activity [16] [%] | Activity [17] [%] | Activity [18] |
| --- | --- | --- | --- | --- | --- | --- | --- | --- | --- | --- | --- | --- | --- | --- | --- | --- | --- | --- |
| COc1ccc(NC(=O)NS(=O)(=O)c2ccc(N3N=C(c4cccs4)CC3c3ccc(C)s3)cc2)cc1 (centres undefined) | 106.9 | 93.16 | 111.79 | 87.18 | 113.39 | 116.23 | 85.68 | 87.76 | Active | 111.39 | 75.83 | 110.15 | 102.46 | 107.16 | 99.87 | 98.07 | 96.81 |  |
| Cc1ccc(NC(=O)NS(=O)(=O)c2ccc(N3N=C(c4cccs4)CC3c3ccc(C)s3)cc2)cc1 (centres undefined) | 99.82 | 96.6 | 111.21 | 85.69 | 116.79 | 74.25 | 78.79 | 89.29 |  | 113.81 | 84.69 | 110.48 | 99.31 | 106.34 | 93.74 | 94.12 | 99.74 | Toxic |
